Reference: patent EP0430883A2, “Anthelmintical compounds” (CIBA-GEIGY AG, priority 1989, dated 1991)

Assays:
[1] = test system: Nematoden wie Haemonchus contortus und Trichostrongylus colubriformis; assay: Test on sheep infected with nematodes (worm count at necropsy); format: in vivo, Schafe; details: single dose of 20 mg Wirksubstanz pro kg Körpergewicht, suspension by stomach tube or rumen injection, worms left in the gut counted 7-10 days after treatment vs untreated infected controls
From the text: 3.1. Versuch an mit Nematoden wie Haemonchus contortus und Trichostrongylus colubriformis infizierten Schafen
Der Wirkstoff wird in Form einer Suspension mit einer Magensonde oder durch Pansen-Injektion Schafen verabreicht, die vorher mit Nematoden wie Haemonchus contortus und Trichostrongylus colubriformis künstlich infiziert wurden. Pro Versuch resp. pro Dosis werden 1 bis 3 Tiere verwendet. Jedes Schaf wird mit nur einer einzigen Dosis behandelt.
Eine erste Evaluierung erfolgt dadurch, dass die Anzahl der vor und nach der Behandlung im Kot der Schafe ausgeschiedenen Wurmeier verglichen wird.
Sieben bis zehn Tage nach der Behandlung werden die Schafe getötet und seziert. Die Auswertung erfolgt durch Auszählung der nach der Behandlung im Darm zurückbleibenden Würmer. Gleichzeitig und gleichartig infizierte aber unbehandelte Schafe dienen als Kontrolle resp. Vergleich.
In diesem Test wird mit Verbindungen der Formeln I und la eine starke Reduzierung des Nematodenbefalls erzielt. So wird beispielsweise beim Einsatz von 20 mg Wirksubstanz pro kg Körpergewicht mit den nachfolgenden Verbindungen eine Reduzierung des Nematodenbefalls von ca. 90 % bewirkt: 1.1, 5.1 und 5.2. Dieses Ergebnis wird bei einzelnen Verbindungen auch noch mit weiter herabgesetzter Dosis, beispielsweise mit 10 mg Wirksubstanz pro kg Körpergewicht oder noch geringeren Mengen an Wirksubstanz, erreicht.

[2] = test system: Cestoden wie Moniezia benedeni; assay: Test on sheep infected with cestodes (worm count at necropsy); format: in vivo, Schafe; details: single dose of less than 20 mg/kg Körpergewicht, suspension by stomach tube or rumen injection, worms left in the gut counted 7-10 days after treatment vs untreated infected controls
From the text: 3.2. Versuch an mit Cestoden wie Moniezia benedeni infizierten Schafen
Der Wirkstoff wird in Form einer Suspension mit einer Magensonde oder durch Pansen-Injektion Schafen verabreicht, die vorher mit Cestoden wie Moniezia benedeni artifiziell infiziert wurden. Pro Versuch resp. pro Dosis werden 3 Tiere verwendet. Jedes Schaf wird mit nur einer einzigen Dosis behandelt.
Sieben bis zehn Tage nach der Behandlung werden die Schafe getötet und seziert. Die Auswertung erfolgt durch Auszählung der nach der Behandlung im Darm zurückbleibenden Würmer. Gleichzeitig und gleichartig infizierte aber unbehandelte Schafe dienen als Kontrolle resp. Vergleich. In diesem Versuch bewirken Wirkstoffe aus den Tabellen, wie beispielsweise die Verbindungen Nr. 1.1, 5.1 und 5.2. bei Dosen von weniger als 20 mg/kg Körpergewicht eine ca. 90%ige Reduktion des Cestodenbefalls.

Molecule: 1,3-Dimethyl-5-[4-(5-oder 7-Chlor-6-fluor-benzthiazol-2-yloxy)-phenylcarbamoyl]-4,6-(1 H,3H,5H)-pyrimidindion [Verbindung 5.2]
- Reduzierung des Nematodenbefalls [1]: ca. 90%
- Reduktion des Cestodenbefalls [2]: ca. 90%

Molecule: CN1CN(C)C(=O)C(C(=O)Nc2ccc(Oc3nc4ccc(OC(F)(F)F)cc4s3)cc2)C1=O [Verbindung 5.1, 1,3-Dimethyl-5-[4-(6-trifluormethoxy-benzthiazol-2-yloxy)-phenylcarbamoyl]-4,6-(1 H,3H,5H)-pyrimidindion]
- Reduzierung des Nematodenbefalls [1]: ca. 90%
- Reduktion des Cestodenbefalls [2]: ca. 90%

Molecule: Cn1c[n+](C)c(=O)c(C(=O)Nc2ccc(Oc3nc4ccc(OC(F)(F)F)cc4s3)cc2)c1[O-] [Verbindung 1.1, 1,3-Dimethyl-5-[4-(6-trifluormethoxy-benzthiazol-2-yloxy)-phenylcarbamoyl]-4(6)-oxo-6-(4)-oxido-(1H,5H)-pyrimidiniumbetain]
- Reduzierung des Nematodenbefalls [1]: ca. 90%
- Reduktion des Cestodenbefalls [2]: ca. 90%
